Measurements as given in paper PMC5218480 (PLoS ONE, 2017).

System: MV-4-11 cells
Test: Gene expression microarray analysis (Affymetrix PrimeView) and GSEA
Type: cell-based, human
Set-up: RFU PODN (11730768_x_at) / Fold change /veh PODN (11730768_x_at) / RFU LINC00158 (11744669_a_at) / Fold change /veh LINC00158 (11744669_a_at) / RFU DUSP10 (11751237_a_at) / Fold change /veh DUSP10 (11751237_a_at) / RFU ID3 (11757404_x_at) / Fold change /veh ID3 (11757404_x_at) / RFU PLEKHG5 (11737974_s_at) / Fold change /veh PLEKHG5 (11737974_s_at) / RFU LRRC4B (11730491_at) / Fold change /veh LRRC4B (11730491_at) / RFU GIMAP4 (11747438_a_at) / Fold change /veh GIMAP4 (11747438_a_at) / RFU KRT8 (11758183_x_at) / Fold change /veh KRT8 (11758183_x_at) / RFU CNN1 (11734310_a_at) / Fold change /veh CNN1 (11734310_a_at) / RFU VPS37D (11726825_at) / Fold change /veh VPS37D (11726825_at) / RFU C10orf10 (11716522_x_at) / Fold change /veh C10orf10 (11716522_x_at) / RFU KIR2DL2 /// KIR2DL4 /// KIR2DL5A /// KIR2DL5B /// KIR2DS1 /// KIR2DS2 /// KIR2DS3 /// KIR2DS4 /// KIR3DL3 /// KIR3DL3 /// KIR3DS1 (11738374_at) / Fold change /veh KIR2DL2 /// KIR2DL4 /// KIR2DL5A /// KIR2DL5B /// KIR2DS1 /// KIR2DS2 /// KIR2DS3 /// KIR2DS4 /// KIR3DL3 /// KIR3DL3 /// KIR3DS1 (11738374_at) / RFU C1QL1 (11718748_at) / Fold change /veh C1QL1 (11718748_at) / RFU TMPRSS4 (11747572_a_at) / Fold change /veh TMPRSS4 (11747572_a_at) / RFU HAMP (11756126_x_at) / Fold change /veh HAMP (11756126_x_at) / RFU RNFT2 (11725882_a_at) / Fold change /veh RNFT2 (11725882_a_at) / RFU NR4A2 (11747474_a_at) / Fold change /veh NR4A2 (11747474_a_at) / RFU ABCC12 (11746883_a_at) / Fold change /veh ABCC12 (11746883_a_at) / RFU TMEM136 (11760407_x_at) / Fold change /veh TMEM136 (11760407_x_at) / RFU CLDN22 /// WWC2 (11732394_at) / Fold change /veh CLDN22 /// WWC2 (11732394_at) / RFU HLA-DPB1 (11760878_x_at) / Fold change /veh HLA-DPB1 (11760878_x_at) / RFU SPINT1 (11716480_a_at) / Fold change /veh SPINT1 (11716480_a_at) / RFU GAP43 (11754022_s_at) / Fold change /veh GAP43 (11754022_s_at) / RFU A4GNT (11735810_at) / Fold change /veh A4GNT (11735810_at) / RFU PRB3 (11715151_x_at) / Fold change /veh PRB3 (11715151_x_at) / RFU TUBB4B (11761932_at) / Fold change /veh TUBB4B (11761932_at) / RFU CAPN14 (11732068_a_at) / Fold change /veh CAPN14 (11732068_a_at) / RFU TMCC2 (11721928_a_at) / Fold change /veh TMCC2 (11721928_a_at) / RFU IRGQ (11745062_a_at) / Fold change /veh IRGQ (11745062_a_at) / RFU FAM174B (11720279_a_at) / Fold change /veh FAM174B (11720279_a_at) / RFU TMPRSS4 (11748680_a_at) / Fold change /veh TMPRSS4 (11748680_a_at) / RFU FAM212B (11763350_a_at) / Fold change /veh FAM212B (11763350_a_at) / RFU PLEKHG5 (11743358_a_at) / Fold change /veh PLEKHG5 (11743358_a_at) / RFU ZSCAN30 (11745921_a_at) / Fold change /veh ZSCAN30 (11745921_a_at) / RFU CMKLR1 (11741424_a_at) / Fold change /veh CMKLR1 (11741424_a_at) / RFU LOC101060620 /// MAPK8IP1 (11723275_at) / Fold change /veh LOC101060620 /// MAPK8IP1 (11723275_at) / RFU SPTSSB (11747773_x_at) / Fold change /veh SPTSSB (11747773_x_at) / RFU PRSS12 (11739890_at) / Fold change /veh PRSS12 (11739890_at) / RFU BIN1 (11741810_x_at) / Fold change /veh BIN1 (11741810_x_at) / RFU WNT11 (11732464_a_at) / Fold change /veh WNT11 (11732464_a_at) / RFU C10orf10 (11716521_a_at) / Fold change /veh C10orf10 (11716521_a_at) / RFU C5orf56 (11738089_at) / Fold change /veh C5orf56 (11738089_at) / RFU CYB561 (11721691_x_at) / Fold change /veh CYB561 (11721691_x_at) / RFU ANKRD19P (11752326_a_at) / Fold change /veh ANKRD19P (11752326_a_at) / RFU OR2T12 /// OR2T33 /// OR2T8 (11738714_s_at) / Fold change /veh OR2T12 /// OR2T33 /// OR2T8 (11738714_s_at) / RFU VCAN (11748164_a_at) / Fold change /veh VCAN (11748164_a_at) / RFU JSRP1 (11732532_at) / Fold change /veh JSRP1 (11732532_at) / RFU KRTAP10-11 (11738290_x_at) / Fold change /veh KRTAP10-11 (11738290_x_at) / RFU MYO3A (11730013_a_at) / Fold change /veh MYO3A (11730013_a_at) / RFU EBF3 (11725865_a_at) / Fold change /veh EBF3 (11725865_a_at) / RFU CAMK2N1 (11719241_x_at) / Fold change /veh CAMK2N1 (11719241_x_at) / RFU C5orf56 (11738088_a_at) / Fold change /veh C5orf56 (11738088_a_at) / RFU OLFML3 (11715873_a_at) / Fold change /veh OLFML3 (11715873_a_at) / RFU LOC100653217 /// NTM (11731650_a_at) / Fold change /veh LOC100653217 /// NTM (11731650_a_at) / RFU MAPK11 (11762145_a_at) / Fold change /veh MAPK11 (11762145_a_at) / RFU FIZ1 (11724087_x_at) / Fold change /veh FIZ1 (11724087_x_at) / RFU OASL (11726364_x_at) / Fold change /veh OASL (11726364_x_at) / RFU SOX15 (11748057_x_at) / Fold change /veh SOX15 (11748057_x_at) / RFU CD79A (11719716_a_at) / Fold change /veh CD79A (11719716_a_at) / RFU HIST1H1D (11736915_at) / Fold change /veh HIST1H1D (11736915_at) / RFU CASKIN2 (11723855_a_at) / Fold change /veh CASKIN2 (11723855_a_at) / RFU LOC730098 (11760151_x_at) / Fold change /veh LOC730098 (11760151_x_at) / RFU OR4N2 (11742367_at) / Fold change /veh OR4N2 (11742367_at) / RFU PRRT2 (11749266_a_at) / Fold change /veh PRRT2 (11749266_a_at) / RFU SNX32 (11753110_a_at) / Fold change /veh SNX32 (11753110_a_at) / RFU CDHR5 (11726645_a_at) / Fold change /veh CDHR5 (11726645_a_at) / RFU RCAN1 (11760418_a_at) / Fold change /veh RCAN1 (11760418_a_at) / RFU FAM167A (11723789_a_at) / Fold change /veh FAM167A (11723789_a_at) / RFU FAM26E (11764081_at) / Fold change /veh FAM26E (11764081_at) / RFU ISYNA1 (11749810_s_at) / Fold change /veh ISYNA1 (11749810_s_at) / RFU ACY1 (11761880_at) / Fold change /veh ACY1 (11761880_at) / RFU 11764098_at / Fold change /veh 11764098_at / RFU SAMD14 (11745864_x_at) / Fold change /veh SAMD14 (11745864_x_at) / RFU NPB (11741838_a_at) / Fold change /veh NPB (11741838_a_at) / RFU TMPRSS6 (11731388_a_at) / Fold change /veh TMPRSS6 (11731388_a_at) / RFU KRTAP10-2 (11738614_at) / Fold change /veh KRTAP10-2 (11738614_at) / RFU ARHGAP8 /// PRR5-ARHGAP8 (11727945_x_at) / Fold change /veh ARHGAP8 /// PRR5-ARHGAP8 (11727945_x_at) / RFU KRTAP5-7 /// NADSYN1 (11734609_at) / Fold change /veh KRTAP5-7 /// NADSYN1 (11734609_at) / RFU RASL12 (11751679_a_at) / Fold change /veh RASL12 (11751679_a_at) / RFU CDKN2B (11736163_a_at) / Fold change /veh CDKN2B (11736163_a_at) / RFU PRF1 (11729649_at) / Fold change /veh PRF1 (11729649_at) / RFU, ZNF638 /// ZNF638-IT1 / Fold change vs veh, ZNF638 /// ZNF638-IT1 / RFU, PANK3 / Fold change vs veh, PANK3 / RFU, SH3YL1 / Fold change vs veh, SH3YL1 / RFU, ZEB2 / Fold change vs veh, ZEB2 / RFU, NRIP1 / Fold change vs veh, NRIP1 / RFU, PTTG1IP / Fold change vs veh, PTTG1IP / RFU, CAPN2 / Fold change vs veh, CAPN2 / RFU, MED14 / Fold change vs veh, MED14 / RFU, SNORA58 / Fold change vs veh, SNORA58 / RFU, C1orf63 / Fold change vs veh, C1orf63 / RFU, LRRFIP1 / Fold change vs veh, LRRFIP1 / RFU, NDUFAF7 / Fold change vs veh, NDUFAF7 / RFU, SLC12A2 / Fold change vs veh, SLC12A2 / RFU, IBTK / Fold change vs veh, IBTK / RFU, ESF1 / Fold change vs veh, ESF1 / Fold change vs veh, TMEM50B / RFU, TAOK1 / Fold change vs veh, TAOK1 / RFU, ACBD3 / Fold change vs veh, ACBD3 / RFU, TMA16 / Fold change vs veh, TMA16 / RFU, RWDD3 / Fold change vs veh, RWDD3 / RFU, BCAT1 / Fold change vs veh, BCAT1 / RFU, EDEM3 / Fold change vs veh, EDEM3 / RFU, TMEM33 / Fold change vs veh, TMEM33 / RFU, WDR75 / Fold change vs veh, WDR75 / RFU, AHCTF1 / Fold change vs veh, AHCTF1 / RFU, TFRC / Fold change vs veh, TFRC / RFU, ZDHHC17 / Fold change vs veh, ZDHHC17 / RFU, NOM1 / Fold change vs veh, NOM1 / RFU, ARL8B / Fold change vs veh, ARL8B / RFU, ZBTB11 / Fold change vs veh, ZBTB11 / RFU, TAMM41 / Fold change vs veh, TAMM41 / RFU, KIAA1704 /// LOC100996395 / Fold change vs veh, KIAA1704 /// LOC100996395 / RFU, ING1 / Fold change vs veh, ING1 / RFU, TRMT61B / Fold change vs veh, TRMT61B / RFU, FUBP3 / Fold change vs veh, FUBP3 / RFU, TP53 / Fold change vs veh, TP53 / RFU, TNKS2 / Fold change vs veh, TNKS2 / RFU, ZFP14 / Fold change vs veh, ZFP14 / RFU, ACTR2 / Fold change vs veh, ACTR2 / RFU, PPP3R1 / Fold change vs veh, PPP3R1 / RFU, PIK3R1 / Fold change vs veh, PIK3R1 / RFU, HNRNPA1 / Fold change vs veh, HNRNPA1 / RFU, RNF170 / Fold change vs veh, RNF170 / RFU, ZNF28 / Fold change vs veh, ZNF28 / RFU, RNGTT / Fold change vs veh, RNGTT / RFU, OGT / Fold change vs veh, OGT / RFU, BRD1 / Fold change vs veh, BRD1 / RFU, MARS / Fold change vs veh, MARS / RFU, ZNF655 / Fold change vs veh, ZNF655 / RFU, FAHD1 / Fold change vs veh, FAHD1 / RFU, BDP1 / Fold change vs veh, BDP1 / RFU, LRRCC1 / Fold change vs veh, LRRCC1 / RFU, ARID1A / Fold change vs veh, ARID1A / RFU, ZNF146 / Fold change vs veh, ZNF146 / RFU, ZNF330 / Fold change vs veh, ZNF330 / RFU, GPN3 / Fold change vs veh, GPN3 / RFU, C9orf123 / Fold change vs veh, C9orf123 / RFU, N4BP2L2 / Fold change vs veh, N4BP2L2 / RFU, ARFIP1 / Fold change vs veh, ARFIP1 / RFU, FAM179B / Fold change vs veh, FAM179B / RFU, BCL10 / Fold change vs veh, BCL10 / RFU, UHRF1BP1L / Fold change vs veh, UHRF1BP1L / RFU, BET1 / Fold change vs veh, BET1 / RFU, CNOT2 / Fold change vs veh, CNOT2 / RFU, ZNF268 / Fold change vs veh, ZNF268 / Fold change vs veh, ZNF507 / RFU, DGCR2 / Fold change vs veh, DGCR2 / RFU, WDSUB1 / Fold change vs veh, WDSUB1 / Fold change vs veh, HSP90B1 /// MIR3652 / RFU, ADSS / Fold change vs veh, ADSS / RFU, GK / Fold change vs veh, GK / RFU, ZNF148 / Fold change vs veh, ZNF148 / RFU, TAF9 / Fold change vs veh, TAF9 / RFU, SLC1A5 / Fold change vs veh, SLC1A5 / RFU, SLMO2 / Fold change vs veh, SLMO2 / RFU, ABCC4 / Fold change vs veh, ABCC4 / RFU, LOC101060439 /// RAP1B / Fold change vs veh, LOC101060439 /// RAP1B / RFU, RFX7 / Fold change vs veh, RFX7 / RFU, GTPBP10 / Fold change vs veh, GTPBP10 / RFU, CNEP1R1 / Fold change vs veh, CNEP1R1 / RFU, BIVM-ERCC5 /// ERCC5 / Fold change vs veh, BIVM-ERCC5 /// ERCC5 / RFU, ILF3 / Fold change vs veh, ILF3 / RFU 11762660_at / Fold change /veh 11762660_at / RFU VCAN (11757783_s_at) / Fold change /veh VCAN (11757783_s_at) / RFU DDX43 (11728927_at) / Fold change /veh DDX43 (11728927_at) / RFU KRT8 (11758188_x_at) / Fold change /veh KRT8 (11758188_x_at) / RFU NKD1 (11759106_at) / Fold change /veh NKD1 (11759106_at) / RFU SRD5A1 (11742802_a_at) / Fold change /veh SRD5A1 (11742802_a_at) / RFU TPSAB1 /// TPSB2 (11721975_s_at) / Fold change /veh TPSAB1 /// TPSB2 (11721975_s_at) / RFU GSTM3 (11746129_a_at) / Fold change /veh GSTM3 (11746129_a_at) / RFU IL23R (11737362_x_at) / Fold change /veh IL23R (11737362_x_at) / RFU TMEM51 (11727254_a_at) / Fold change /veh TMEM51 (11727254_a_at) / RFU PIWIL2 (11732686_x_at) / Fold change /veh PIWIL2 (11732686_x_at) / RFU ORM1 (11744905_x_at) / Fold change /veh ORM1 (11744905_x_at) / RFU CCDC152 (11743942_at) / Fold change /veh CCDC152 (11743942_at) / RFU ECM1 (11717891_a_at) / Fold change /veh ECM1 (11717891_a_at) / RFU IL23R (11748794_a_at) / Fold change /veh IL23R (11748794_a_at) / RFU TNFAIP8L3 (11732012_x_at) / Fold change /veh TNFAIP8L3 (11732012_x_at) / RFU MBOAT4 (11741988_at) / Fold change /veh MBOAT4 (11741988_at) / RFU 11764193_at / Fold change /veh 11764193_at / RFU TMEM53 (11763286_at) / Fold change /veh TMEM53 (11763286_at) / RFU MAGEB2 (11727129_at) / Fold change /veh MAGEB2 (11727129_at) / RFU TMEM200A (11744735_a_at) / Fold change /veh TMEM200A (11744735_a_at) / RFU CCDC152 (11751479_a_at) / Fold change /veh CCDC152 (11751479_a_at) / RFU FAM211A (11726209_a_at) / Fold change /veh FAM211A (11726209_a_at) / RFU RGS16 (11746705_a_at) / Fold change /veh RGS16 (11746705_a_at) / RFU VCAN (11755009_s_at) / Fold change /veh VCAN (11755009_s_at) / RFU RHOB (11743442_s_at) / Fold change /veh RHOB (11743442_s_at) / RFU RGS16 (11720943_a_at) / Fold change /veh RGS16 (11720943_a_at) / RFU RGS16 (11720944_at) / Fold change /veh RGS16 (11720944_at) / RFU, VPS4B / Fold change vs veh, VPS4B / RFU, CREB1 / Fold change vs veh, CREB1 / RFU, DNAJC13 / Fold change vs veh, DNAJC13 / RFU, GNAQ / Fold change vs veh, GNAQ / RFU, CDK5R1 / Fold change vs veh, CDK5R1 / RFU, ZRANB3 / Fold change vs veh, ZRANB3 / RFU, CUL4A / Fold change vs veh, CUL4A / RFU, CCNY / Fold change vs veh, CCNY / RFU, UFL1 / Fold change vs veh, UFL1 / RFU, COG3 / Fold change vs veh, COG3 / RFU, DIAPH2 / Fold change vs veh, DIAPH2 / RFU, SKA2 / Fold change vs veh, SKA2 / RFU, AFF3 / Fold change vs veh, AFF3 / RFU, LMF1 / Fold change vs veh, LMF1 / RFU, IPO11 / Fold change vs veh, IPO11 / RFU, DFFB / Fold change vs veh, DFFB / RFU, FOXP1 / Fold change vs veh, FOXP1 / RFU, CARD8 / Fold change vs veh, CARD8 / RFU, STRN3 / Fold change vs veh, STRN3 / RFU, ADK / Fold change vs veh, ADK / RFU, RASSF2 / Fold change vs veh, RASSF2 / RFU, WIPF1 / Fold change vs veh, WIPF1 / RFU, LARP1B / Fold change vs veh, LARP1B / RFU, RASA1 / Fold change vs veh, RASA1 / RFU, RB1 / Fold change vs veh, RB1 / RFU, PPFIA1 / Fold change vs veh, PPFIA1 / RFU, MAT2A / Fold change vs veh, MAT2A / RFU, CCT5 / Fold change vs veh, CCT5 / RFU, WDR92 / Fold change vs veh, WDR92 / RFU, CUX1 / Fold change vs veh, CUX1 / RFU, TTC7A / Fold change vs veh, TTC7A / RFU, TMEM135 / Fold change vs veh, TMEM135 / RFU, DEPTOR / Fold change vs veh, DEPTOR / RFU, CPM / Fold change vs veh, CPM / RFU, DNAJB6 / Fold change vs veh, DNAJB6 / RFU, CACNA2D3 / Fold change vs veh, CACNA2D3 / RFU, DTX4 / Fold change vs veh, DTX4 / RFU, TFCP2 / Fold change vs veh, TFCP2 / RFU, GMCL1 /// GMCL1P1 / Fold change vs veh, GMCL1 /// GMCL1P1 / RFU, AEBP2 / Fold change vs veh, AEBP2 / RFU, SNHG1 /// SNORD22 /// SNORD25 /// SNORD26 /// SNORD27 /// SNORD28 /// SNORD29 /// SNORD31 / Fold change vs veh, SNHG1 /// SNORD22 /// SNORD25 /// SNORD26 /// SNORD27 /// SNORD28 /// SNORD29 /// SNORD31 / Fold change (Aza/veh), C12orf56 (ProbeSet 11735607_a_at) / Fold change (ACY-1035/veh), C12orf56 (ProbeSet 11735607_a_at) / Fold change (Aza/veh), FGFR1OP (ProbeSet 11751329_s_at) / Fold change (ACY-1035/veh), FGFR1OP (ProbeSet 11751329_s_at) / Fold change (Aza/veh), VPS36 (ProbeSet 11739960_a_at) / Fold change (ACY-1035/veh), VPS36 (ProbeSet 11739960_a_at) / RFU SYPL1 (11715823_x_at) / Fold change /veh SYPL1 (11715823_x_at) / RFU IGFBP7 (11715501_s_at) / Fold change /veh IGFBP7 (11715501_s_at) / RFU REEP3 (11722064_at) / Fold change /veh REEP3 (11722064_at) / RFU IGLL1 (11728026_x_at) / Fold change /veh IGLL1 (11728026_x_at): dose or concentration left out as unconfirmed
Conditions: MV-4-11 cells, 48 hours

Compound: Nc1ncn([C@@H]2O[C@H](CO)[C@@H](O)[C@H]2O)c(=O)n1 [azacitidine]
- RFU PLEKHG5 (11737974_s_at): 50.98 RFU
